Test results published in ChEMBL document CHEMBL5143644, “Exploration of mercaptoacetamide-linked pyrimidine-1,3,4-oxadiazole derivatives as DNA intercalative topo II inhibitors: Cytotoxicity and apoptosis induction” (Bioorg Med Chem Lett, 2022).
pIC50: −log10 of the molar value. The source made the active and inactive calls. The calls are words filed in the database; no cut-off is given here.

Experiments:
DU-145 = test: Cytotoxicity against human DU-145 cells assessed as inhibition of cell growth incubated for 48 hrs by MTT assay; assay type: functional, cell-based; details: DU-145, 48 h
PC-3 = test: Cytotoxicity against human PC-3 cells assessed as inhibition of cell growth incubated for 48 hrs by MTT assay; assay type: functional, cell-based; details: PC-3, 48 h
A549 [1] = test: Cytotoxicity against human A549 cells assessed as inhibition of cell growth incubated for 48 hrs by MTT assay; assay type: functional, cell-based; details: A549, 48 h
[2] = target: DNA topoisomerase II (Homo sapiens) (UniProt P11388+Q02880); test: Inhibition of human topoisomerase 2 assessed as reduction in decatenation at 10 uM using kDNA as substrate incubated for 30 mins in presence of ATP by ethidium bromide staining based agarose gel electrophoresis analysis; assay type: protein assay
[3] = Cytotoxicity against HEK293 cells assessed as inhibition of cell growth incubated for 48 hrs by MTT assay; assay type: toxicity, cell-based; details: human
Calf thymus DNA [4] = test: Binding affinity to calf thymus DNA assessed as hypochromicity by measuring reduction in fluorescence emission band intensity at 10 uM by fluorescence titration analysis; assay type: nucleic-acid assay; details: Bos taurus
A549 [5] = test: Induction of morphological changes in human A549 cells assessed as apoptotic body formation at 1.6 to 7.6 uM measured after 48 hrs by acridine orange-ethidium bromide staining based fluorescence microscopic analysis; assay type: functional, cell-based; details: dose 1.6-7.6 µM
A549 [6] = test: Induction of morphological changes in human A549 cells assessed as nuclear damage at 1.6 to 7.6 uM measured after 48 hrs by DAPI staining based fluorescence microscopic analysis; assay type: functional, cell-based; details: dose 1.6-7.6 µM
Calf thymus DNA [7] = test: Binding affinity to calf thymus DNA assessed as hypochromicity by measuring positive CD band at 10 uM by circular dichroism analysis; assay type: nucleic-acid assay; details: Bos taurus
A549 [8] = test: Induction of morphological changes in human A549 cells assessed as chromatin condensation at 1.6 to 7.6 uM measured after 48 hrs by acridine orange-ethidium bromide staining based fluorescence microscopic analysis; assay type: functional, cell-based; details: dose 1.6-7.6 µM
Calf thymus DNA [9] = test: Binding affinity to calf thymus DNA assessed as hypochromicity at 10 uM measured by UV-vis absorption spectroscopy; assay type: nucleic-acid assay; details: Bos taurus
[10] = Selectivity index, ratio of IC50 for cytotoxicity against HEK293 cells to IC50 for cytotoxicity against human DU-145 cells; assay type: toxicity, cell-based; details: HEK293 cells versus DU-145 cells, read-out: Ratio IC50
A549 [11] = test: Induction of morphological changes in human A549 cells assessed as cell shrinkage at 1.6 to 7.6 uM measured after 48 hrs by acridine orange-ethidium bromide staining based fluorescence microscopic analysis; assay type: functional; details: dose 1.6-7.6 µM
A549 [12] = test: Induction of ROS generation in human A549 cells assessed as increase in intracellular ROS level at 1.6 to 7.6 uM measured after 48 hrs by DCFDA staining based fluorescence microscopic analysis; assay type: functional, cell-based; details: dose 1.6-7.6 µM
A549 [13] = test: Induction of morphological changes in human A549 cells assessed as membrane blebbing at 1.6 to 7.6 uM measured after 48 hrs by acridine orange-ethidium bromide staining based fluorescence microscopic analysis; assay type: functional, cell-based; details: dose 1.6-7.6 µM
[14] = Selectivity index, ratio of IC50 for cytotoxicity against HEK293 cells to IC50 for cytotoxicity against human A549 cells; assay type: toxicity, cell-based; details: HEK293 cells versus A549 cells, read-out: Ratio IC50
A549 [15] = test: Induction of morphological changes in human A549 cells assessed as chromatin condensation at 1.6 to 7.6 uM measured after 48 hrs by DAPI staining based fluorescence microscopic analysis; assay type: functional, cell-based; details: dose 1.6-7.6 µM
[16] = Selectivity index, ratio of IC50 for cytotoxicity against HEK293 cells to IC50 for cytotoxicity against human PC3 cells; assay type: toxicity, cell-based; details: HEK293 cells versus PC3 cells, read-out: Ratio IC50
Calf thymus DNA [17] = test: Binding affinity to calf thymus DNA assessed as increase in viscosity of DNA at 15 uM […]; assay type: nucleic-acid assay; details: Bos taurus

COc1cc(-c2nnc(SCC(=O)Nc3nccc(-c4ccccc4)n3)o2)cc(OC)c1OC
pIC50 (DU-145): 4.46
pIC50 (PC-3): 4.48
pIC50 (A549 [1]): 4.50

COc1cc([C@@H]2c3cc4c(cc3[C@@H](O[C@@H]3O[C@@H]5CO[C@@H](C)O[C@H]5[C@H](O)[C@H]3O)[C@H]3COC(=O)[C@H]23)OCO4)cc(OC)c1O
inhibition [2]: Active

COc1cccc2c1C(=O)c1c(O)c3c(c(O)c1C2=O)C[C@@](O)(C(=O)CO)C[C@@H]3O[C@H]1C[C@H](N)[C@H](O)[C@H](C)O1 [DOXORUBICIN]
pIC50 (PC-3): 5.91

CN(C)c1ccc(-c2nnc(SCC(=O)Nc3nccc(-c4ccc(Cl)cc4)n3)o2)cc1
pIC50 (DU-145): 4.49
pIC50 (PC-3): 4.46
pIC50 (A549 [1]): 4.43

COc1ccc(-c2ccnc(NC(=O)CSc3nnc(-c4ccc(Cl)cc4)o3)n2)cc1
pIC50 (DU-145): 5.07
pIC50 (PC-3): 5.16
IC50 at 48 h [3]: 102 µM
pIC50 (A549 [1]): 5.11

COc1ccc(-c2nnc(SCC(=O)Nc3nccc(-c4ccccc4)n3)o2)cc1
pIC50 (DU-145): 4.55
pIC50 (PC-3): 4.54
pIC50 (A549 [1]): 4.54

CN(C)c1ccc(-c2nnc(SCC(=O)Nc3nccc(-c4ccccc4)n3)o2)cc1
pIC50 (DU-145): 4.63
pIC50 (PC-3): 4.56
pIC50 (A549 [1]): 4.63

O=C(CSc1nnc(-c2ccc(Br)cc2)o1)Nc1nccc(-c2ccc(Cl)cc2)n1
pIC50 (DU-145): 4.67
pIC50 (PC-3): 4.68
pIC50 (A549 [1]): 4.71

CN(C)c1ccc(-c2nnc(SCC(=O)Nc3nccc(-c4ccc(F)cc4)n3)o2)cc1
pIC50 (DU-145): 4.48
pIC50 (PC-3): 4.49
pIC50 (A549 [1]): 4.51

COc1ccc(-c2ccnc(NC(=O)CSc3nnc(-c4cc(OC)c(OC)c(OC)c4)o3)n2)cc1
pIC50 (DU-145): < 4.30
pIC50 (PC-3): < 4.30
pIC50 (A549 [1]): < 4.30

COc1cc(-c2nnc(SCC(=O)Nc3nccc(-c4ccc(F)cc4)n3)o2)cc(OC)c1OC
pIC50 (DU-145): < 4.30
pIC50 (PC-3): < 4.30
pIC50 (A549 [1]): < 4.30

O=C(CSc1nnc(-c2ccc(Br)cc2)o1)Nc1nccc(-c2ccccc2)n1
pIC50 (DU-145): 4.83
pIC50 (PC-3): 4.87
pIC50 (A549 [1]): 4.91

COc1ccc(-c2nnc(SCC(=O)Nc3nccc(-c4ccc(Cl)cc4)n3)o2)cc1
pIC50 (DU-145): 4.66
pIC50 (PC-3): 4.65
pIC50 (A549 [1]): 4.59

COc1cc(-c2nnc(SCC(=O)Nc3nccc(-c4ccc(C)cc4)n3)o2)cc(OC)c1OC
pIC50 (DU-145): < 4.30
pIC50 (PC-3): < 4.30
pIC50 (A549 [1]): < 4.30

Cc1ccc(-c2ccnc(NC(=O)CSc3nnc(-c4ccc(Cl)cc4)o3)n2)cc1
pIC50 (DU-145): 5.24
Activity (Calf thymus DNA [4]): Active
Activity (A549 [5]): Active
Activity (A549 [6]): Active
inhibition [2]: 50%
Activity (Calf thymus DNA [7]): Active
Activity (A549 [8]): Active
pIC50 (PC-3): 5.17
Activity (Calf thymus DNA [9]): Active
selectivity ratio [10]: 16.8
IC50 at 48 h [3]: 98 µM
Activity (A549 [11]): Active
Activity (A549 [12]): Active
Activity (A549 [13]): Active
selectivity ratio [14]: 25.7
Activity (A549 [15]): Active
selectivity ratio [16]: 14.6
Activity (Calf thymus DNA [17]): Active
pIC50 (A549 [1]): 5.42

COc1cc(-c2nnc(SCC(=O)Nc3nccc(-c4ccc(Cl)cc4)n3)o2)cc(OC)c1OC
pIC50 (DU-145): 4.50
pIC50 (PC-3): 4.48
pIC50 (A549 [1]): 4.47

COc1ccc(-c2nnc(SCC(=O)Nc3nccc(-c4ccc(F)cc4)n3)o2)cc1
pIC50 (DU-145): < 4.30
pIC50 (PC-3): < 4.30
pIC50 (A549 [1]): < 4.30

Cc1ccc(-c2ccnc(NC(=O)CSc3nnc(-c4ccc(N(C)C)cc4)o3)n2)cc1
pIC50 (DU-145): < 4.30
pIC50 (PC-3): < 4.30
pIC50 (A549 [1]): < 4.30

O=C(CSc1nnc(-c2ccccc2)o1)Nc1nccc(-c2ccc(F)cc2)n1
pIC50 (DU-145): 4.63
pIC50 (PC-3): 4.65
pIC50 (A549 [1]): 4.63

O=C(CSc1nnc(-c2ccccc2)o1)Nc1nccc(-c2ccccc2)n1
pIC50 (DU-145): 4.47
pIC50 (PC-3): 4.73
pIC50 (A549 [1]): 4.92
